Results reported in ChEMBL document CHEMBL4665641, “Lead optimization and efficacy evaluation of quinazoline-based BET family inhibitors for potential treatment of cancer and inflammatory diseases” (Bioorg Med Chem Lett, 2019).

Tests used:
Kasumi 1 [1] = test: Antitumor activity against human Kasumi-1 cells xenografted in CB17 SCID mouse assessed as tumor weight at 10 mg/kg, po QD for 29 days (reference value: 2.1+/- 0.3 g); type: functional; settings: time 29 day
Kasumi 1 [2] = test: Antitumor activity against human Kasumi-1 cells xenografted in CB17 SCID mouse assessed as tumor weight at 10 mg/kg, po administered for 25 days (reference value: 2.57 +/- 0.27 g); type: functional; settings: time 25 day
Kasumi 1 [3] = test: Antitumor activity against human Kasumi-1 cells xenografted in CB17 SCID mouse assessed as tumor volume at 10 mg/kg, po QD for 29 days (reference value: 1734 +/- 220 mm3); type: functional; settings: time 29 day
Kasumi 1 [4] = test: Antitumor activity against human Kasumi-1 cells xenografted in CB17 SCID mouse assessed as tumor volume at 10 mg/kg, po QD for 25 days (reference value: 2189 +/- 604 mm3); type: functional; settings: time 25 day
Kasumi 1 [5] = test: Antitumor activity against human Kasumi-1 cells xenografted in CB17 SCID mouse assessed as tumor volume at 40 mg/kg, po QD for 25 days (reference value: 2189 +/- 604 mm3); type: functional; settings: time 25 day
Kasumi 1 [6] = test: Antitumor activity against human Kasumi-1 cells xenografted in CB17 SCID mouse assessed as tumor weight at 40 mg/kg, po QD for 25 days (reference value: 2.57 +/-0.27 g); type: functional; settings: time 25 day
[7] = Drug uptake in tumor tissue of CB17 SCID mouse xenografted with human Kasumi-1 cells at 40 mg/kg, po QD for 25 days and measured after 24 hrs post last dose; type: ADME, organism-based, Neoplasm; settings: time 25 day, read-out: Drug uptake
[8] = Toxicity in CB17 SCID mouse xenografted with human Kasumi-1 cells assessed body weight loss at 40 mg/kg, po QD for 25 days; type: organism-based; settings: in vivo, 600 h, time 25 day
[9] = Drug uptake in tumor tissue of CB17 SCID mouse xenografted with human Kasumi-1 cells at 10 mg/kg, po QD for 25 days and measured after 24 hrs post last dose; type: ADME, organism-based, Neoplasm; settings: time 25 day, read-out: Drug uptake
[10] = Half life in CD-1 mouse at 2 mg/kg, iv; type: ADME, organism-based; settings: in vivo
[11] = Stability in human liver microsomes assessed as half life; type: ADME, Microsome
MV4-11 = test: Cytotoxicity against human MV4-11 cells assessed as inhibition of cell viability; type: functional, cell-based
[12] = Half life in CD-1 mouse at 10 mg/kg, po; type: ADME, organism-based; settings: in vivo
[13] = target: T1, Bromodomain-containing protein 4 (Homo sapiens, UniProt O60885); test: Inhibition of human full-length recombinant N-terminal His-tagged BRD4 (2 to 1362 residues) expressed in Sf9 cells using histone H4 peptide containing acetylated lysine residues as substrate preincubated with enzyme for 30 mins followed by incubation with substrate for 30 mins by Alphascreen assay […]
Kasumi 1 [14] = test: Antitumor activity against human Kasumi-1 cells xenografted in CB17 SCID mouse assessed as inhibition of tumor growth at 10 mg/kg, po QD for 25 days; type: functional; settings: Kasumi 1, po, 600 h, time 25 day, read-out: TGI
[15] = Stability in mouse liver microsomes assessed as half life; type: ADME, Microsome
[16] = AUC(0 to infinity) in CD-1 mouse at 2 mg/kg, iv; type: ADME, organism-based; parameters: time infinity, route intravenous, dose 2 mg/kg; settings: CD-1, mouse, in vivo
Kasumi 1 [17] = test: Antitumor activity against human Kasumi-1 cells xenografted in CB17 SCID mouse assessed as inhibition of tumor growth at 40 mg/kg, po QD for 25 days; type: functional; settings: Kasumi 1, po, 600 h, time 25 day, read-out: TGI
[18] = Cmax in CD-1 mouse at 2 mg/kg, iv measured after 5 mins; type: ADME, organism-based; parameters: route intravenous, dose 2 mg/kg; settings: mouse, in vivo, 5 min
[19] = Volume of distribution at steady state in CD-1 mouse at 2 mg/kg, iv; type: ADME, organism-based; settings: in vivo, read-out: Vdss
[20] = Toxicity in CB17 SCID mouse xenografted with human Kasumi-1 cells assessed body weight loss at 10 to 40 mg/kg, po QD for 25 days; type: organism-based; settings: in vivo, 600 h, dose 10-40 mg/kg, time 25 day
Kasumi 1 [21] = test: Antiproliferative activity against human Kasumi-1 cells after 72 hrs by Celltiter-Glo assay; type: functional, cell-based; settings: Kasumi 1, 72 h
[22] = Cmax in CD-1 mouse at 10 mg/kg, po; type: ADME, organism-based; parameters: route oral, dose 10 mg/kg; settings: CD-1, mouse, in vivo, read-out: Cmax
[23] = target: T1, Bromodomain-containing protein 4; test: Competitive binding affinity to human partial length BRD4 (BD1,2) (N44 to E460 residues) expressed in bacterial expression system by BROMOscan assay
[24] = AUC(0 to infinity) in CD-1 mouse at 10 mg/kg, po; type: ADME, organism-based; parameters: route oral, time infinity, dose 10 mg/kg; settings: mouse, in vivo
[25] = Plasma clearance in CD-1 mouse at 2 mg/kg, iv; type: ADME, organism-based
[26] = Stability in rat liver microsomes assessed as half life; type: ADME, Microsome
Mus musculus [27] = test: (§1) Antiinflammatory activity in collagen/complete freund's adjuvant-induced arthritis DBA/1 mouse model assessed as IL-1 beta level in rear right paw at 1 mg/kg, po administered via gavage starting from day 21 to day 41 post collagen/CFA challenge and measured on day 42 measured per mg protein (reference value: 3.15 pg); type: functional; settings: time 21 day
Mus musculus [28] = test: as §1, with “MCP-1” for “IL-1 beta”, “126.24” for “3.15”; type: functional; settings: time 21 day
Mus musculus [29] = test: as §1, with “VEGF” for “IL-1 beta”, “0.98” for “3.15”; type: functional; settings: time 21 day
Mus musculus [30] = test: as §1, with “IFN-gamma” for “IL-1 beta”, “0.78” for “3.15”; type: functional; settings: time 21 day
Mus musculus [31] = test: as §1, with “IL-2” for “IL-1 beta”, “0.2” for “3.15”; type: functional; settings: time 21 day
Mus musculus [32] = test: as §1, with “TNF-alpha” for “IL-1 beta”, “0.88” for “3.15”; type: functional; settings: time 21 day
[33] = Toxicity in collagen/CFA induced arthritis DBA/1 mouse model assessed as body weight loss at 1 mg/kg, po administered via gavage starting from day 21 to day 41 post collagen/CFA challenge and measured on day 0, 18, 21 followed by three times weekly up to 42 days; type: organism-based; settings: in vivo, 504 h, time 21 day
Mus musculus [34] = test: Antiarthritic activity in collagen/complete freund's adjuvant-induced arthritis DBA/1 mouse model assessed as paw thickness at 1 mg/kg, po administered via gavage starting from day 21 to day 41 post collagen/CFA challenge and measured on day 21 by caliper analysis (reference value: 2.48 millimeter); type: functional; settings: time 21 day
Mus musculus [35] = test: as §1, with “IP-10” for “IL-1 beta”, “6.23” for “3.15”; type: functional; settings: time 21 day
Mus musculus [36] = test: as §1, with “IL-6” for “IL-1 beta”, “180.7” for “3.15”; type: functional; settings: time 21 day
[37] = Toxicity in collagen/CFA induced arthritis DBA/1 mouse model assessed as body weight at 1 mg/kg, po administered via gavage starting from day 21 to day 41 post collagen/CFA challenge and measured on day 21 relative to initial weight (reference value: 94.96%); type: organism-based; settings: in vivo, 504 h, time 21 day

## CCNC(=O)C[C@@H]1N=C(c2ccc(Cl)cc2)c2cc(OC)ccc2-n2c(C)nnc21 [MOLIBRESIB]
Kasumi 1 [1]
  Activity: 0.3 g
Kasumi 1 [2]
  Activity: 0.52 g
Kasumi 1 [3]
  Activity: 330 mm3
Kasumi 1 [4]
  Activity: 586 mm3
Kasumi 1 [5]
  Activity: 79 mm3
Kasumi 1 [6]
  Activity: 0.07 g
[7]
  concentration at 600 h: 16 ng/g
[8]
  Activity: Toxic

## Cc1noc(C)c1-c1ccc2nc(-c3cnn(CC(C)(C)O)c3)nc(N3CCOC[C@@H]3C3CC3)c2c1
[9]
  concentration at 600 h: 303 ng/g
[10]
  half-life: 1.5 h
Kasumi 1 [2]
  Activity: 1.31 g
[11]
  half-life: 1.77 h
MV4-11
  IC50: 1660 nM
[12]
  half-life: 1.8 h
[13]
  IC50: 76 nM
Kasumi 1 [14]
  inhibition in vivo at 10 mg/kg: 49.1%
[15]
  t1/2: 1.7 h
[16]
  AUC(0-inf): 3370 ng·h/mL
Kasumi 1 [17]
  inhibition in vivo at 40 mg/kg: 98.8%
[18]
  Cmax: 1940 ng/mL
Kasumi 1 [4]
  Activity: 1001 mm3
[19]
  Vd: 1.28 L/kg
[20]
  Activity: Non-Toxic
Kasumi 1 [21]
  IC50: 520 nM
[22]
  Cmax: 2040 ng/mL
[23]
  Kd: 230 nM
Kasumi 1 [5]
  Activity: 51 mm3
Kasumi 1 [6]
  Activity: 0.03 g
[7]
  concentration at 600 h: 4210 ng/g
[24]
  AUC: 15013 ng·h/mL
[25]
  clearance: 10.1 mL/min/kg
[26]
  half-life: 0.55 h

## C[C@@H]1C[C@H]2[C@@H]3CCC4=CC(=O)C=C[C@]4(C)[C@@]3(F)[C@@H](O)C[C@]2(C)[C@@]1(O)C(=O)CO [DEXAMETHASONE]
Mus musculus [27]
  Activity: 2.32 pg
Mus musculus [28]
  Activity: 1.99 pg
Mus musculus [29]
  Activity: 0.85 pg
Mus musculus [30]
  Activity: 1.5 pg
Mus musculus [31]
  Activity: 0.63 pg
Mus musculus [32]
  Activity: 0.39 pg
[33]
  Activity: Toxic
Mus musculus [34]
  Activity: 1.53 mm
Mus musculus [35]
  Activity: 0.86 pg
Mus musculus [36]
  Activity: 2.17 pg
[37]
  Activity: 92.74%
